Reference: US20240156861A1, “Cisplatin particles and uses thereof” (CRITITECH, INC., priority 2022, published 2024)
“And” between values parts separate entries of the source, which are not always exact repeats. Equal values may be shown once.

Key:
[1] = Platinum blood to tumor-site tissue concentration ratios in H69 xenograft mice; format: in vivo, female athymic nude mice; details: for Individual platinum blood to tumor-site tissue concentration ratio: individual animals
Procedure: (§1) A total of 130 female athymic nude mice bearing the H69 human lung carcinoma xenograft were assigned to 10 treatment groups. Group 1 (N=5 females) served as the no treatment control. All intratumoral (IT) injections were delivered as single 25 μL injections. […] The maximum concentration of cisplatin solution and LSAM-Cisplatin suspension is 1 mg/mL and 10 mg/mL, respectively. The IT maximum feasible dose (MFD) for cisplatin solution is 25 μg and 250 μg for LSAM-Cisplatin suspension. Group 2 (N=10 females) was administered 47.5% ethanol/47.5% glycerin/5% water IT on Study Days 1 and 16 and served as control. Group 3 (N=20 females) received 133 μg cisplatin intraperitoneal (IP), considered the standard of care (SOC), once weekly for 3 cycles (Days 1, 8, and 15. Group 4 (N=5) was administered a single 125 μg large surface area microparticle (LSAM)-Cisplatin IT injection on Day 1. Group 5 (N=5 females) received a single 187.5 μg LSAM-Cisplatin IT injection on Day 1. Group 6 (N=5 females) was administered a single 250 μg LSAM-Cisplatin IT injection on Day 1. Group 7 (N=20 females) received single 25 μg cisplatin IT injections on Days 1 and 16. Group 8 (N=20 females) received single 125 μg LSAM-Cisplatin IT injections on Days 1 and 16. Group 9 (N=20 females) received single 187.5 μg LSAM-Cisplatin IT injections on Days 1 and 16. Group 10 (N=20 females) received single 250 μg LSAM-Cisplatin IT injections on Days 1 and 16. One hour postdose on Day 1, blood and tumor tissue were collected for determination of platinum concentrations from 3 Group 2 females and 5 females from Groups 3 and 7-10. On Days 8, 16 (predose) and 28, blood and tumor tissue were collected for determination of platinum concentrations from 5 females/Study Day from Groups 3 and 7-10. Total platinum concentrations in blood and tumor tissues were determined by inductively coupled plasma mass spectrometry (ICP-MS).
(§2) All blood and tumor-site tissue platinum concentrations that were reported as BLQ were considered as zero for statistical purposes. Mean and standard deviation are the only statistics reported for blood and tumor-site tissue platinum concentrations and platinum blood to tumor tissue ratios. Composite maximum observed concentration (Cmax), time of Cmax (Tmax), and area under the concentration-time curve (AUC) values for platinum in blood and tumor tissue following single and repeated administration of cisplatin or LSAM-Cisplatin are reported.
Platinum Cmax, Tmax, and AUC values for single-dose blood and tumor-site tissue data are provided in Table 8 and Table 9, respectively. Platinum Cmax, Tmax, and AUC values for multi-dose blood and tumor-site tissue data are provided in Table 10 and Table 11, respectively. Mean single-dose blood platinum concentrations are plotted in FIG. 20. Mean single-dose tumor-site tissue platinum concentrations are plotted in FIG. 21. Mean multiple-dose blood platinum concentration data are plotted in FIG. 22. Mean multiple-dose tumor-site tissue platinum concentration data are plotted in FIG. 23.

[2] = test system: H69 human lung carcinoma xenograft; assay: Tumor-site tissue platinum concentrations and PK parameters by ICP-MS in H69 xenograft mice; format: in vivo, female athymic nude mice; details: for Tumor-Site Tissue Platinum AUC0-t / Tumor-Site Tissue Platinum Tmax: multiple doses;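 as to Individual Tumor-Site Tissue Platinum Concentrations: unit μg/g tissue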;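 as to Mean Tumor-Site Tissue Platinum Concentrations: unit μg/g tissue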
Procedure: as §1
The LSAM-Cisplatin pharmacology study was conducted to: • Quantitate platinum content in whole blood and tumors to animals administered cisplatin IP (standard of care, SOC), the MFD of IT cisplatin, and IT LSAM- Cisplatin at the maximum feasible dose (MFD) and two lower doses • Evaluate tumor response • Evaluate increased doses of IT LSAM-Cisplatin up to 2X systemic maximum tolerated dose (MTD) • Evaluate one vs two injections • Evaluate recurrences if tumors regressed
Blood and tumor-site tissue were collected from each treatment group according to Table 4.
as §2

[3] = 6 mg/kg IP on Days 1, 8, and 15

N.N.[Cl][Pt][Cl] [Cisplatin]
Individual platinum blood to tumor-site tissue concentration ratio ([1]; Group 3, 6 mg/kg cisplatin IP on Days 1, 8, and 15, sampling Day 1): 1.084 and 0.775 and 0.134 and 0.994 | Mean platinum blood to tumor-site tissue concentration ratio ([1]; Group 3, 6 mg/kg cisplatin IP on Days 1, 8, and 15, sampling Day 1, N=4): 0.747 | Individual platinum blood to tumor-site tissue concentration ratio ([1]; Group 3, 6 mg/kg cisplatin IP on Days 1, 8, and 15, sampling Day 16): 1.174 and 1.120 and 1.000 and 0.424 and 1.188 | Mean platinum blood to tumor-site tissue concentration ratio ([1]; Group 3, 6 mg/kg cisplatin IP on Days 1, 8, and 15, sampling Day 16, N=5): 0.981 | Individual platinum blood to tumor-site tissue concentration ratio ([1]; Group 3, 6 mg/kg cisplatin IP on Days 1, 8, and 15, sampling Day 28): 0.506 and 0.267 | Mean platinum blood to tumor-site tissue concentration ratio ([1]; Group 3, 6 mg/kg cisplatin IP on Days 1, 8, and 15, sampling Day 28, N=2): 0.386 | Individual platinum blood to tumor-site tissue concentration ratio ([1]; Group 7, ~1.1 mg/kg cisplatin IT on Days 1 and 16, sampling Day 1, 1.1 mg/kg): 0.011 and 0.018 and 0.019 and 0.022 and 0.016 | Mean platinum blood to tumor-site tissue concentration ratio ([1]; Group 7, ~1.1 mg/kg cisplatin IT on Days 1 and 16, sampling Day 1, N=5): 0.017 | Individual platinum blood to tumor-site tissue concentration ratio ([1]; Group 7, ~1.1 mg/kg cisplatin IT on Days 1 and 16, sampling Day 8, 1.1 mg/kg): 0.023 and 0.000 and 0.020 and 0.026 and 0.053 | Mean platinum blood to tumor-site tissue concentration ratio ([1]; Group 7, ~1.1 mg/kg cisplatin IT on Days 1 and 16, sampling Day 8, N=5): 0.024 | Individual platinum blood to tumor-site tissue concentration ratio ([1]; Group 7, ~1.1 mg/kg cisplatin IT on Days 1 and 16, sampling Day 16, 1.1 mg/kg): 0.000 (3×) and 0.023 | Mean platinum blood to tumor-site tissue concentration ratio ([1]; Group 7, ~1.1 mg/kg cisplatin IT on Days 1 and 16, sampling Day 16, N=4): 0.006 | Individual platinum blood to tumor-site tissue concentration ratio ([1]; Group 7, ~1.1 mg/kg cisplatin IT on Days 1 and 16, sampling Day 28, 1.1 mg/kg): 0.003 and 0.008 and 0.009 and 0.007 and 0.025 | Mean platinum blood to tumor-site tissue concentration ratio ([1]; Group 7, ~1.1 mg/kg cisplatin IT on Days 1 and 16, sampling Day 28, N=5): 0.010 | systemic exposure to platinum based on mean blood to tumor-site tissue ratios ([1]; repeated IT administration of 1.1 mg/kg): negligible | Mean Tumor-Site Tissue Platinum Concentrations ([2]; Group 3: 6 mg/kg IP on Days 1, 8, 15, Day 1 (1 hour postdose)): 0.734 µg/g | Individual Tumor-Site Tissue Platinum Concentrations ([2]; Group 3: 6 mg/kg IP on Days 1, 8, 15, Day 1 (1 hour postdose), 6 mg/kg): 0.901 μg/g and BLQ (below the limit of quantitation (<0.650 μg/g) and treated as zero for statistical purposes) and 1.15 μg/g and 0.777 μg/g and 0.843 μg/g | Individual Tumor-Site Tissue Platinum Concentrations ([2]; Group 3: 6 mg/kg IP on Days 1, 8, 15, Day 8 (pre-dose)): BLQ (below the limit of quantitation (<0.650 μg/g) and treated as zero for statistical purposes) | Mean Tumor-Site Tissue Platinum Concentrations ([2]; Group 3: 6 mg/kg IP on Days 1, 8, 15, Day 8 (pre-dose), BLQ treated as zero): 0.00 µg/g | Mean Tumor-Site Tissue Platinum Concentrations ([2]; Group 3: 6 mg/kg IP on Days 1, 8, 15, Day 16): 1.39 µg/g | Individual Tumor-Site Tissue Platinum Concentrations ([2]; Group 3: 6 mg/kg IP on Days 1, 8, 15, Day 16, 6 mg/kg): 0.753 µg/g and 1.17 µg/g and 1.27 µg/g and 2.62 µg/g and 1.12 µg/g | Mean Tumor-Site Tissue Platinum Concentrations ([2]; Group 3: 6 mg/kg IP on Days 1, 8, 15, Day 28): 0.459 µg/g | Individual Tumor-Site Tissue Platinum Concentrations ([2]; Group 3: 6 mg/kg IP on Days 1, 8, 15, Day 28, 6 mg/kg): BLQ (below the limit of quantitation (<0.650 μg/g) and treated as zero for statistical purposes) (3×) and 0.933 μg/g and 1.36 μg/g | Mean Tumor-Site Tissue Platinum Concentrations ([2]; Group 7: 1.1 mg/kg IT on Days 1 and 16, Day 1 (1 hour postdose)): 11.3 µg/g | Individual Tumor-Site Tissue Platinum Concentrations ([2]; Group 7: 1.1 mg/kg IT on Days 1 and 16, Day 1 (1 hour postdose), 1.1 mg/kg): 14.4 µg/g and 13.2 µg/g and 9.66 µg/g and 8.68 µg/g and 10.4 µg/g | Mean Tumor-Site Tissue Platinum Concentrations ([2]; Group 7: 1.1 mg/kg IT on Days 1 and 16, Day 8): 3.23 µg/g | Individual Tumor-Site Tissue Platinum Concentrations ([2]; Group 7: 1.1 mg/kg IT on Days 1 and 16, Day 8, 1.1 mg/kg): 3.06 µg/g and 4.74 µg/g and 4.29 µg/g and 3.02 µg/g and 1.06 µg/g | Mean Tumor-Site Tissue Platinum Concentrations ([2]; Group 7: 1.1 mg/kg IT on Days 1 and 16, Day 16 (predose)): 2.97 µg/g | Individual Tumor-Site Tissue Platinum Concentrations ([2]; Group 7: 1.1 mg/kg IT on Days 1 and 16, Day 16 (predose), 1.1 mg/kg): 1.90 μg/g and 2.42 μg/g and 7.79 μg/g and 2.76 μg/g and BLQ (below the limit of quantitation (<0.650 μg/g) and treated as zero for statistical purposes) | Mean Tumor-Site Tissue Platinum Concentrations ([2]; Group 7: 1.1 mg/kg IT on Days 1 and 16, Day 28): 9.11 µg/g | Individual Tumor-Site Tissue Platinum Concentrations ([2]; Group 7: 1.1 mg/kg IT on Days 1 and 16, Day 28, 1.1 mg/kg): 20.2 µg/g and 8.89 µg/g and 6.35 µg/g and 7.97 µg/g and 2.16 µg/g | Tumor-Site Tissue Platinum AUC0-t [2, 3]: 470 µg·h/g | Tumor-Site Tissue Platinum Tmax [2, 3]: 384 h | Tumor-Site Tissue Platinum AUC0-t ([2]; ~1.1 mg/kg IT on Days 1 and 16): 3,728 μg · hr/g | Tumor-Site Tissue Platinum Tmax ([2]; ~1.1 mg/kg IT on Days 1 and 16): 1 h
